Data as given in the supplement of paper PMC10307832.

Columns and labels:
Assay in all cases: relative viability (nuclei count vs DMSO), 5 days (fraction); higher = more cells survive
[1] = compound: CCN(CCO)CCCC(C)Nc1ccnc2cc(Cl)ccc12 [Hydroxychloroquine] + NC(=O)Nc1cc(-c2cccc(F)c2)sc1C(=O)N[C@H]1CCCNC1 [AZD7762] (partner 0.2 µM)
Method in brief: (§1)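 Five library-drug doses in √10 steps were combined with a fixed anchor-drug dose, or a single drug was given alone, by pin tool to lung cancer cell lines in 1536-well plates the day after seeding. Nuclei were stained and counted after 5 days. Relative viability is the nuclei count in treated wells over that in vehicle wells, taken as the median of duplicate plates.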

[2] = compound: CCN(CCO)CCCC(C)Nc1ccnc2cc(Cl)ccc12 [Hydroxychloroquine] + CS(=O)(=O)CCNCc1ccc(-c2ccc3ncnc(Nc4ccc(OCc5cccc(F)c5)c(Cl)c4)c3c2)o1 [Lapatinib] (partner 2 µM)
Method in brief: as §1

[3] = compound: CCN(CCO)CCCC(C)Nc1ccnc2cc(Cl)ccc12 [Hydroxychloroquine] + Nc1ncn([C@H]2C[C@H](O)[C@@H](CO)O2)c(=O)n1 [Decitabine] (partner 2 µM)
Method in brief: as §1

[4] = compound: CCN(CCO)CCCC(C)Nc1ccnc2cc(Cl)ccc12 [Hydroxychloroquine] + O=C(c1cc(Cc2n[nH]c(=O)c3ccccc23)ccc1F)N1CCN(C(=O)C2CC2)CC1 [Olaparib] (partner 8 µM)
Method in brief: as §1

| Cell Line | relative viability ([1]; first compound 0.5 µM) | relative viability ([1]; first compound 1.581 µM) | relative viability ([1]; first compound 5 µM) | relative viability ([1]; first compound 15.81 µM) | relative viability ([1]; first compound 50 µM) | relative viability ([2]; first compound 0.5 µM) | relative viability ([2]; first compound 1.581 µM) | relative viability ([2]; first compound 5 µM) | relative viability ([2]; first compound 15.81 µM) | relative viability ([2]; first compound 50 µM) | relative viability ([3]; first compound 0.5 µM) | relative viability ([3]; first compound 1.581 µM) | relative viability ([3]; first compound 5 µM) | relative viability ([3]; first compound 15.81 µM) | relative viability ([3]; first compound 50 µM) | relative viability ([4]; first compound 0.5 µM) | relative viability ([4]; first compound 1.581 µM) | relative viability ([4]; first compound 5 µM) | relative viability ([4]; first compound 15.81 µM) | relative viability ([4]; first compound 50 µM) |
| --- | --- | --- | --- | --- | --- | --- | --- | --- | --- | --- | --- | --- | --- | --- | --- | --- | --- | --- | --- | --- |
| NCI-H3122 | 0.956 | 0.976 | 1.06 | 0.993 | 1.13 | 1.02 | 1.01 | 1.05 | 1 | 1.07 | 0.429 | 0.413 | 0.468 | 0.426 | 0.403 | 0.623 | 0.646 | 0.676 | 0.664 | 0.729 |
| PC-3 [JPC-3] | 0.905 | 0.882 | 0.652 | 0.727 | 0.774 | 0.485 | 0.423 | 0.421 | 0.46 | 0.501 | 0.814 | 0.767 | 0.805 | 0.792 | 0.761 | 1.23 | 1.14 | 1.09 | 1.2 | 1.16 |
| PC-14 | 0.3 | 0.459 | 0.31 | 0.302 | 0.406 | 0.348 | 0.354 | 0.291 | 0.306 | 0.292 | 0.248 | 0.149 | 0.214 | 0.231 | 0.201 | 0.31 | 0.28 | 0.276 | 0.25 | 0.285 |
| RERF-LC-KJ | 0.959 | 0.961 | 1.01 | 0.91 | 1.08 | 0.847 | 0.805 | 0.942 | 0.779 | 0.94 | 0.659 | 0.684 | 0.754 | 0.7 | 0.608 | 0.917 | 0.948 | 0.896 | 0.846 | 0.933 |
